{"source": "patent US10111847B2", "about": "“Compounds and methods for modulating vascular injury” (The Regents of the University of California, priority 2012, dated 2018)", "key": {"[1]": {"test_system": "human sv-VSMCs", "assay": "PDGF-BB induced VSMC cell-shape measurement (phalloidin)", "type": "cell-based", "conditions": "100 nM, 30 min; PDGF-BB 50 ng/ml 1 hr", "description": "Cells were cultured in 8-well chamber slides (3,000 cells/well) and pretreated with MaR-1 or vehicle (0.1% ethanol) for 30 min followed by the addition of PDGF-BB (50 ng/ml) for 1 h. Cells were washed twice in phosphate-buffered saline (PBS), permeabilized with 0.1% Triton-X, and then fixed in 4% formaldehyde, labeled with Alexa Fluor 568 phalloidin (Invitrogen) and DAPI, and then mounted on glass slides. Cell area and length/width ratio were determined by outlining the cell dimensions and computing 2-dimensional area using GIMP image analysis software (GIMP, freeware; www.gimp.org). For each condition, dimensions were measured from 30 randomly selected cells, and all treatment conditions were performed in triplicate.\nHuman sv-VSMCs cultured in chamber slides were treated with 7S-Maresin-1 at 100 nM or vehicle for 30 min, followed by PDGF-BB, 50 ng/ml for 1 hr. Cells were then fixed, permeabilized and stained with phalloidin (Life technologies).\nFIGS. 21A-21E. (A) Vehicle Control. (B) PDGF-BB, 50 ng/ml. (C) 7S-Maresin-1, 100 nm+PDGF-BB, 50 ng/ml. (D) 7S-Maresin-1, 100 nm+pertussis toxin, 10 ng/ml+PDGF-BB, 50 ng/ml. (E) Graphical summary of N=4 per group. P≤0.01, One-way ANOVA with Dunnett's post hoc test. *P<0.05 compared to PDGF-BB (50 ng/ml). †: P≤0.05 compared to PDGF-BB alone, unpaired t-test. ‡: P≤0.05 compared to PDGF-BB+7S-Maresin-1, unpaired t-test. Error bars: SEM."}, "[2]": {"test_system": "IKKα/β subunit", "assay": "TNFα induced phosphorylation of IKKα/β in sv-VSMCs, western blot", "type": "cell-based, human", "conditions": "100 nm, 30 min; TNFα 10 ng/ml 15 min", "description": "Mar-1. VSMCs and ECs were lysed in buffer (20 mM Tris-Hcl, 137 mM NaCl, 10% Glycerol, 1% NP-40) with protease and phosphatase inhibitors (Halt inhibitor capsules, Pierce, Inc) by sonication on ice. The lysates were instantly snap frozen in liquid nitrogen and thawed back later for western blotting. After centrifugation (15,000 g for 20 minutes), the whole cell extract (supernatant) was collected and was heated at 100° C. in Laemlli buffer for 6 minutes. Lysates were run on Mini-Protean TGX gels\n(Biorad) and transferred on PVDF membranes which were probed with appropriate primary and secondary antibodies and visualized for quantitation using q-dot nanocrystals (Life Technologies, Inc).\nCells were pretreated with 100 nm of 7S/7R-Maresin-1 for 30 min, followed by TNFα (10 ng/ml for VSMC and 1 ng/ml for EC) for 15 min. Whole cell lysates were collected and probed for pan and phospho IKK (Cell Signaling Inc.).\nFIG. 18. IKK-phospho and total IKK western blotting image is representative of three independent experiments. Bar graph represents net quantitative densitometry analysis. N=3. P≤0.05, One-way ANOVA with Dunnett's post hoc test. *: P≤0.05 compared to control, unpaired t-test. †: P≤0.05 compared to TNFα, unpaired t-test. Error bars: SEM."}}, "data": [{"smiles": "CC/C=C\\C/C=C\\C[C@H](O)\\C=C/C=C/C=C/[C@@H](O)C/C=C\\CCC(=O)O", "note": "[7S-Maresin-1, 7S,14R-dihydroxydocosa-4Z,8E,10Z,12Z,16Z,19Z-hexaenoic acid]", "values": [{"measurement": "PDGF-BB induced vascular smooth muscle cell shape change", "setting": "[1]", "value": "Alters"}, {"measurement": "TNFα induced phosphorylation of IKKα/β subunit in human sv-VSMCs", "setting": "[2]", "value": "Reduce"}]}]}
